For five molecules, Activity and MIC results are on record in ChEMBL document CHEMBL1151439, “Bactericidal action of daptomycin against stationary-phase and nondividing Staphylococcus aureus cells” (2007).

The test system of experiment [1] is Staphylococcus aureus. Description: Bactericidal activity against high inoculum density exponential growth culture of methicillin-sensitive Staphylococcus aureus ATCC 29213 grown for 2 hrs in MHBc at 10 ug/mL after 24 hrs by time kill study. The experiment is classed as functional, organism-based.
Experiment [2] has as its system Staphylococcus aureus. Description: Bactericidal activity against 24 hrs cold-arrested exponential growth culture of methicillin-sensitive Staphylococcus aureus ATCC 29213 grown for 2 hrs in MHBc at 2 ug/mL incubated at 37 degC after 2 hrs by time kill study. The experiment is classed as functional, organism-based.
In experiment [3] the test system is Staphylococcus aureus. The experiment in a line: Bactericidal activity against 1 hr cold-arrested exponential growth culture of methicillin-sensitive Staphylococcus aureus ATCC 29213 grown for 2 hrs in MHBc at 2 ug/mL incubated at 0 degC by time kill study. The experiment is classed as functional, organism-based.
The subject of experiment [4] is Staphylococcus aureus. Description: Antibacterial activity against exponential growth culture of methicillin-sensitive Staphylococcus aureus ATCC 29213 grown for 2 hrs in MHBc by broth microdilution method. It counts as functional. A general note: Dilution methods test growth across graded concentrations, often in twofold steps.
For experiment [5], the system named is Staphylococcus aureus. The experiment in a line: Bactericidal activity against CCCP-induced metabolically arrested exponential growth culture of methicillin-sensitive Staphylococcus aureus ATCC 29213 grown for 2 hrs in MHBc at 10 ug/mL after 24 hrs by time kill study. The experiment is classed as functional, organism-based.
The test system of experiment [6] is Staphylococcus aureus. Description: Bactericidal activity against erythromycin-induced metabolically arrested exponential growth culture of methicillin-sensitive Staphylococcus aureus ATCC 29213 grown for 2 hrs in MHBc at 10 ug/mL after 24 hrs by time kill study. The experiment is classed as functional, organism-based.
Experiment [7] relates to Staphylococcus aureus. The experiment in a line: Bactericidal activity against high inoculum density stationary phase culture of methicillin-sensitive Staphylococcus aureus ATCC 29213 grown for >17 hrs in MHBc at 100 ug/mL after 24 hrs by time kill study. The experiment is classed as functional, organism-based.
The test system of experiment [8] is Staphylococcus aureus. The experiment in a line: Bactericidal activity against high inoculum density stationary phase culture of methicillin-sensitive Staphylococcus aureus ATCC 29213 grown for >17 hrs in MHBc assessed as effect on viability at 100 ug/mL after 4 hrs by time kill study. The experiment is classed as functional, organism-based.
For experiment [9], the system named is Staphylococcus aureus. The experiment in a line: Bactericidal activity against high inoculum density stationary phase culture of methicillin-sensitive Staphylococcus aureus ATCC 29213 grown for >17 hrs in MHBc at 100 ug/mL after prolonged treatment period by time kill study. The experiment is classed as functional, organism-based.
For experiment [10], the system named is Staphylococcus aureus. The experiment in a line: Bactericidal activity against high inoculum density stationary phase culture of methicillin-sensitive Staphylococcus aureus ATCC 29213 grown for >17 hrs in MHBc at 10 ug/mL after 24 hrs by time kill study. The experiment is classed as functional, organism-based.
Experiment [11] deals with Staphylococcus aureus. Description: Bactericidal activity against high inoculum density stationary phase culture of methicillin-sensitive Staphylococcus aureus ATCC 29213 grown for >17 hrs in MHBc by time kill study. The experiment is classed as functional, organism-based.
Experiment [12] concerns Staphylococcus aureus. Description: Bactericidal activity against exponential growth culture of methicillin-sensitive Staphylococcus aureus ATCC 29213 grown for 2 hrs in MHBc assessed as logarithmic reduction in CFU at 2 ug/ml within 60 mins by time kill study. The experiment is classed as functional.
For experiment [13], the system named is Staphylococcus aureus. The experiment in a line: Bactericidal activity against stationary phase culture of methicillin-sensitive Staphylococcus aureus ATCC 29213 grown for 17 hrs in MHBc at 32 ug/ml after 24 hrs by time kill study. It counts as functional, organism-based.
Experiment [14] relates to Staphylococcus aureus. The experiment in a line: Bactericidal activity against stationary phase culture of methicillin-sensitive Staphylococcus aureus ATCC 29213 grown for >17 hrs in MHBc followed by dilution in nutrient depleted MHBc assessed as logarithmic reduction in CFU per millimiter at 100 ug/mL after 24 hrs by time kill study. It counts as functional, organism-based.

In experiment [15] the test system is Staphylococcus aureus. Description: Bactericidal activity against high inoculum density stationary phase culture of methicillin-sensitive Staphylococcus aureus ATCC 29213 grown for >17 hrs in MHBc assessed as log reduction in CFU per millimiter at 100 ug/mL after 8 hrs by time kill study. The experiment is classed as functional.
In experiment [16] the test system is Staphylococcus aureus. Description: Bactericidal activity against stationary phase culture of methicillin-sensitive Staphylococcus aureus ATCC 29213 grown for >17 hrs in MHBc followed by dilution in nutrient depleted MHBc assessed as logarithmic reduction in CFU per millimiter at 10 ug/mL after 24 hrs by time kill study. The experiment is classed as functional.

Experiment [17] relates to Staphylococcus aureus. The experiment in a line: Bactericidal activity against high inoculum density exponential growth culture of methicillin-sensitive Staphylococcus aureus ATCC 29213 grown for 2 hrs in MHBc assessed as log reduction in cell density at 100 ug/mL after 1 hr by time kill study. It counts as functional, organism-based.

≈ marks a conversion by molar mass, not a printed value. Calls of active or inactive are those of the source. No cut-off for these calls is given here.

What is called MIC is the lowest concentration found to suppress growth. Take `O=C(O)c1cn(C2CC2)c2cc(N3CCNCC3)c(F)cc2c1=O` [CIPROFLOXACIN]: the outcome in the experiment with Staphylococcus aureus [1] and in the experiment with Staphylococcus aureus [2] was Active. The result with Staphylococcus aureus [3], in the experiment on Staphylococcus aureus [5] and with Staphylococcus aureus [6] was inactive. This molecule also had an MIC against Staphylococcus aureus [4] (ATCC 29213, 2 h) of 0.5 µg/mL (≈ 1.51 µM).

Take `CCOc1ccc2ccccc2c1C(=O)N[C@@H]1C(=O)N2[C@@H]1SC(C)(C)[C@@H]2C(=O)O` [NAFCILLIN]: in the experiment with Staphylococcus aureus [2], the result was Active. In the experiment with Staphylococcus aureus [3], the outcome was inactive. Moreover, the MIC against Staphylococcus aureus [4] (ATCC 29213, 2 h) turned out to be 0.125 µg/mL (≈ 0.302 µM).

In the case of `CN[C@H](CC(C)C)C(=O)N[C@H]1C(=O)N[C@@H](CC(N)=O)C(=O)N[C@H]2C(=O)N[C@H]3C(=O)N[C@H](C(=O)N[C@H](C(=O)O)c4cc(O)cc(O)c4-c4cc3ccc4O)[C@H](O)c3ccc(c(Cl)c3)Oc3cc2cc(c3O[C@@H]2O[C@H](CO)[C@@H](O)[C@H](O)[C@H]2O[C@H]2C[C@](C)(N)[C@H](O)[C@H](C)O2)Oc2ccc(cc2Cl)[C@H]1O`, the result in the experiment on Staphylococcus aureus [7] and in the experiment with Staphylococcus aureus [8] was inactive.

In the case of `CCCCCCCCCC(=O)N[C@@H](Cc1c[nH]c2ccccc12)C(=O)N[C@H](CC(N)=O)C(=O)N[C@@H](CC(=O)O)C(=O)N[C@@H]1C(=O)NCC(=O)N[C@@H](CCCN)C(=O)N[C@@H](CC(=O)O)C(=O)N[C@H](C)C(=O)N[C@@H](CC(=O)O)C(=O)NCC(=O)N[C@H](CO)C(=O)N[C@@H]([C@H](C)CC(=O)O)C(=O)N[C@@H](CC(=O)c2ccccc2N)C(=O)O[C@@H]1C`, the outcome in the experiment with Staphylococcus aureus [1], in the experiment on Staphylococcus aureus [2], with Staphylococcus aureus [9], with Staphylococcus aureus [3], in the experiment on Staphylococcus aureus [13] and with Staphylococcus aureus [14] was Active. Moreover, the result in the experiment with Staphylococcus aureus [5], in the experiment on Staphylococcus aureus [17] and with Staphylococcus aureus [6] was Active. For the same molecule, the result in the experiment with Staphylococcus aureus [10] was inactive. Also, the Activity result is “Dose-dependent effect” in the experiment on Staphylococcus aureus [11], 3 with Staphylococcus aureus [12], 3 in the experiment on Staphylococcus aureus [15] and above 1 in the experiment on Staphylococcus aureus [16]. In the experiment on Staphylococcus aureus [4] (ATCC 29213, 2 h), this molecule had an MIC of 0.5 µg/mL (≈ 0.309 µM).

For the molecule GENTAMICIN, in the experiment with Staphylococcus aureus [7], the outcome was Active. This molecule yielded an MIC with Staphylococcus aureus [4] of 0.25 µg/mL.
